For twelve compounds, mortality results are on record in patent US12568969B2, “Pyridine compounds for controlling invertebrate pests” (FMC Corporation, priority 2020, dated 2026).

Common to all, as to format: in vivo
In test [1] the test system is corn planthopper (Peregrinus maidis (Ashmead)). As to the kind of experiment: whole plant or invertebrate. The note with it: Peregrinus maidis, 144 h, 6 days; for mortality at 50 ppm: sprayed at 50 ppm; for mortality at 250 ppm: sprayed at 250 ppm; for mortality at 10 ppm: sprayed at 10 ppm. On the procedure:
(§1) Test compounds were formulated using a solution containing 10% acetone, […] and 300 ppm Activator 909 non-ionic surfactant (Loveland Products, Loveland, Colorado, USA). The formulated compounds were applied in 1 mL of liquid through an atomizer nozzle positioned 1.27 cm (0.5 inches) above the top of each test unit. Test compounds were sprayed at the rates indicated, and each test was replicated three times.
For evaluating control of corn planthopper (Peregrinus maidis (Ashmead)) through contact and/or systemic means, the test unit consisted of a small open container with a 3-4-day-old corn (maize) plant inside. White sand was added to the top of the soil prior to application of the test compound.
Test compounds were formulated and sprayed at 250 and/or 50 ppm and/or 10 ppm. After spraying of the formulated test compound, the test units were allowed to dry for 1 h before they were post-infested with ˜15-20 nymphs (18-to-21-day-old). A black, screened cap was placed on the top of each test unit, and the test units were held for 6 days in a growth chamber at 22-24° C. and 50-70% relative humidity. Each test unit was then visually assessed for insect mortality.

The subject of test [2] is green peach aphid (Myzus persicae (Sulzer)). As to the kind of experiment: Test D: control of green peach aphid on radish plant, spray. The settings on record: Myzus persicae, 144 h, 6 days; for mortality at 50 ppm: sprayed at 50 ppm; for mortality at 250 ppm: sprayed at 250 ppm. On the procedure: as §1
For evaluating control of green peach aphid (Myzus persicae (Sulzer)) through contact and/or systemic means, the test unit consisted of a small open container with a 12-15-day-old radish plant inside. This was pre-infested by placing on a leaf of the test plant 30-40 aphids on a piece of leaf excised from a culture plant (cut-leaf method). The aphids moved onto the test plant as the leaf piece desiccated. After pre-infestation, the soil of the test unit was covered with a layer of sand.
[…] After spraying of the formulated test compound, each test unit was allowed to dry for 1 hour and then a black, screened cap was placed on top. The test units were held for 6 days in a growth chamber at 19-21° C. and 50-70% relative humidity. Each test unit was then visually assessed for insect mortality.

For test [3], the system named is cotton melon aphid (Aphis gossypii (Glover)). As to the kind of experiment: whole plant or invertebrate. The note with it: Aphis gossypii, 144 h, 6 days; for mortality at 50 ppm: sprayed at 50 ppm; for mortality at 250 ppm: sprayed at 250 ppm. On the procedure:
as §1
[…] This was pre-infested with 30-40 insects on a piece of leaf according to the cut-leaf method, and the soil of the test unit was covered with a layer of sand.
Test compounds were formulated and sprayed at 250 and/or 50 ppm. After spraying, the test units were maintained in a growth chamber for 6 days at 19° C. and 70% relative humidity. Each test unit was then visually assessed for insect mortality.

Test [4] relates to sweetpotato whitefly (Bemisia tabaci (Gennadius)). In words: Test F: control of sweetpotato whitefly on cotton plant, spray. The settings on record: 312 h, 13 days; for mortality at 250 ppm: sprayed at 250 ppm; for mortality at 50 ppm: sprayed at 50 ppm. The protocol:
as §1
For evaluating control of the sweetpotato whitefly (Bemisia tabaci (Gennadius)) through contact and/or systemic means, the test unit consisted of a small open container with a 12-14-day-old cotton plant inside. Prior to the spray application, both cotyledons were removed from the plant, leaving one true leaf for the assay. Adult whiteflies were allowed to lay eggs on the plant and then were removed from the test unit. Cotton plants infested with at least 15 eggs were submitted to the test for spraying.
Test compounds were formulated and sprayed at 250 and/or 50 ppm. After spraying, the test units were allowed to dry for 1 hour. The cylinders were then removed, and the units were taken to a growth chamber and held for 13 days at 28° C. and 50-70% relative humidity. Each test unit was then visually assessed for insect mortality.

Molecules are shown by their SMILES.

Regarding `[O-][S+](c1ccc(C(F)c2c(F)cncc2-n2nccn2)cc1)C(F)(F)F` (stereo not drawn) [Compound 67, 3-fluoro-4-[fluoro-[4-(trifluoromethylsulfinyl)phenyl]methyl]-5-(triazol-2-yl)pyridine], the mortality at 50 ppm in test [1], in test [2] and in test [3] was at least 80% throughout. Moreover, the mortality at 250 ppm in test [1] was at least 80%; in test [2] it was at least 80%; in test [3], at least 80%; in test [4] it was at least 70%.
With `FC(c1ccc(OC(F)(F)F)cc1)c1c(Cl)cncc1-n1cccn1` (stereo not drawn) [Compound 88], the mortality at 50 ppm in test [1] was at least 80%; in test [3] it was at least 80%; in test [4], at least 70%. Further, the mortality at 250 ppm in test [1] is at least 80%; in test [2] it was at least 80%; in test [3] it was at least 80%; in test [4], at least 70%.
As for `COC(c1ccc(SC(F)(F)F)cc1)c1c(F)cncc1-n1cncn1` (stereo not drawn) [Compound 71], the mortality at 50 ppm in test [2] is at least 80%; in test [3], at least 80%; in test [4], at least 70%. For the same compound, the values for the mortality at 250 ppm in test [2], in test [3] and in test [4] were at least 80%, at least 80% and at least 70%, respectively.
In test [4], `COC(c1ccc(Br)cc1)c1c(F)cncc1-n1nccn1` (stereo not drawn) [Compound 117] registered a mortality at 50 ppm of at least 70% and a mortality at 250 ppm of at least 70%.
`FC(c1ccc(OC(F)(F)F)cc1)c1c(Cl)cncc1-n1cncn1` (stereo not drawn) [Compound 15]: the mortality at 50 ppm in test [1] and in test [2] was at least 80% each time. In addition, the mortality at 250 ppm is at least 80% in test [1], at least 80% in test [2] and at least 70% in test [4].
On to `O=S(=O)(c1ccc(C(F)c2c(Cl)cncc2-n2nccn2)cc1)C(F)(F)F` (stereo not drawn) [Compound 91], for which the figures for the mortality at 50 ppm in test [2], in test [3] and in test [4] were at least 80%, at least 80% and at least 70%, respectively. The values for the mortality at 250 ppm in test [2], in test [3] and in test [4] were at least 80%, at least 80% and at least 70%, respectively.
Consider `COC(c1ccc(OC(F)(F)F)cc1)c1c(Cl)cncc1-n1nccn1` (stereo not drawn) [Compound 16], for which the mortality at 50 ppm in test [1], in test [2] and in test [3] was at least 80% throughout. In addition, the mortality at 250 ppm in test [1], in test [2] and in test [3] was at least 80% each time.
For `FC(c1ccc(Br)cc1)c1c(Cl)cncc1-n1nccn1` (stereo not drawn) [Compound 109], in test [1], the mortality at 10 ppm is at least 80%, the mortality at 50 ppm is at least 80% and the mortality at 250 ppm was at least 80%. In test [3], this compound returned a mortality at 50 ppm of at least 80% and a mortality at 250 ppm of at least 80%. In addition, in test [4], the mortality at 50 ppm is at least 70% and the mortality at 250 ppm is at least 70%.
Take `COC(c1ccc(SC(F)(F)F)cc1)c1c(Br)cncc1-n1ccnn1` (stereo not drawn) [Compound 134]: in test [4], the mortality at 50 ppm is at least 70% and the mortality at 250 ppm was at least 70%.
As for `Fc1cncc(-n2cncn2)c1C(F)c1ccc(SC(F)(F)F)cc1` (stereo not drawn) [Compound 2], the mortality at 50 ppm in test [1] and in test [2] was at least 80% in each case. Moreover, the mortality at 250 ppm in test [1], in test [2] and in test [3] was at least 80% in each case.
In test [1], `COC(c1ccc(SC(F)(F)F)cc1)c1c(F)cncc1-n1cccn1` (stereo not drawn) [Compound 70] showed a mortality at 10 ppm of at least 80%, a mortality at 50 ppm of at least 80% and a mortality at 250 ppm of at least 80%. Also, in test [2], the mortality at 250 ppm is at least 80%. In test [3], the mortality at 50 ppm was at least 80% and the mortality at 250 ppm is at least 80%.
In test [1], `CC(C)(C)c1ccc(C(F)c2c(Br)cncc2-n2nccn2)cc1` (stereo not drawn) [Compound 108] displayed a mortality at 50 ppm of at least 80% and a mortality at 250 ppm of at least 80%. In test [4], this compound returned a mortality at 50 ppm of at least 70% and a mortality at 250 ppm of at least 70%.
